In patent publication US12049439B2 (OrsoBio, Inc., priority 2018, dated 2024):

System: PC-3 cells
Assay: PC-3 Oxygen Rate Consumption (OCR) Assay
Type: cell-based
Conditions: Homo sapiens, 0.05 h, medium with 2% FBS, OCR at 3-min post-injection normalized to % increase over DMSO-treated cells, concentration for half-maximal OCR increase, read-out: EC50-PC3-OCR-FBS-3min
Method: PC-3 Oxygen Rate Consumption (OCR) Assay Procedure:
One day before the assay, PC-3 cells were seeded at 2.5×10^4 cells/160 μL/well in a 96-well XFe96 cell plate, part of a FlexPak containing a cell plate and a cartridge (Agilent, Sunnyvale, CA). The cells were incubated overnight at 37° C. in a 5% CO2 and 90% humidity incubator with F12K culture medium (ThermoFisher Scientific/Invitrogen, Grand Island, NY) containing 10% FBS and 1% penicillin/streptomycin. On the day of the assay, the cells were washed twice with 300 µL/well Medium A [XF assay medium (Agilent) supplemented 10 mM glucose, 1 mM pyruvate, and 2% fetal bovine serum (FBS)], and incubated with 175 µL/well Media A for 1 hr in a 37° C., non-CO2 incubator prior to the measurement of cellular respiration. Compounds of interests were prepared in 1:2 serial dilutions with 100% DMSO and then further diluted into 8× working stock with Media A prior to being loaded to Injection Port A on a XFe96 Analyzer (Agilent). Six replicates were used for each treatment. The cartridge was calibrated in the XFe96 Analyzer 30 minute prior to the measurement of cellular respiration. Basal levels of OCR were measured three times, each using a “3-minute mixing/3-minute measurement” program. The compound effect was measured immediately after compound injection from Injection Port A, and OCR was monitored continuously 10 times, each time using a “1-minute mixing/2-minute measurement” program for a total of 30 minutes post compound injection. The level of OCR at 3-min post-injection was normalized to % increase over DMSO-treated cells. The concentration of compound required to reach the half-maximal OCR increase was defined as EC50 Table 2 contains PC3 OCR EC50 values for the compounds disclosed.

Structure (SMILES)	EC50 [µM]
CS(=O)(=O)c1ccc(S(=O)(=O)Nc2cc(C(F)(F)F)ccc2C(=O)NC23CCC(F)(CC2)CC3)cc1 [Example 9, N-(4-fluorobicyclo[2.2.2]octan-1-yl)-2-((4-(methylsulfonyl)phenyl)sulfonamido)-4-(trifluoromethyl)benzamide]	5.56
CCCCS(=O)(=O)Nc1ccc(C#N)cc1C(=O)NC12CCC(C#N)(CC1)CC2 [Example 129, 2-(butylsulfonamido)-5-cyano-N-(4-cyanobicyclo[2.2.2]octan-1-yl)benzamide]	24.3
O=C(NC12CC(c3ccccc3)(C1)C2)c1ccccc1NS(=O)(=O)c1ccc(-n2ccnc2)cc1 [Example 36, 2-((4-(1H-imidazol-1-yl)phenyl)sulfonamido)-N-(3-phenylbicyclo[1.1.1]pentan-1-yl)benzamide]	≥ 20
CC(C)(C)S(=O)(=O)Nc1ccc(Cl)cc1C(=O)NC12CC(C#N)(C1)C2 [Example 85, 5-chloro-N-(3-cyanobicyclo[1.1.1]pentan-1-yl)-2-((1,1-dimethylethyl)sulfonamido)benzamide]	12.5
CC(C)(C)S(=O)(=O)Nc1ccc(C#N)cc1C(=O)NC12CC(c3ccccc3)(C1)C2 [Example 96, 5-cyano-2-((1,1-dimethylethyl)sulfonamido)-N-(3-phenylbicyclo[1.1.1]pentan-1-yl)benzamide]	1.28
CS(=O)(=O)Nc1ccccc1C(=O)NC12CC(C(F)(F)F)(C1)C2 [Example 138, 2-(methylsulfonamido)-N-(3-(trifluoromethyl)bicyclo[1.1.1]pentan-1-yl)benzamide]	≥ 100
CS(=O)(=O)c1ccc(S(=O)(=O)Nc2cc(F)ccc2C(=O)NC23CC(c4ccccc4)(C2)C3)cc1 [Example 12, 4-fluoro-2-((4-(methylsulfonyl)phenyl)sulfonamido)-N-(3-phenylbicyclo[1.1.1]pentan-1-yl)benzamide]	6.88
N#CC12CCC(NC(=O)c3cc(F)ccc3NS(=O)(=O)CCC(F)(F)F)(CC1)CC2 [Example 220, N-(4-cyanobicyclo[2.2.2]octan-1-yl)-5-fluoro-2-((3,3,3-trifluoropropyl)sulfonamido)benzamide]	5.09
CS(=O)(=O)Nc1ccc(C(F)(F)F)cc1C(=O)NC12CC3CC(CC(C#N)(C3)C1)C2 [Example 175, N-((1R,5R)-3-cyanoadamantan-1-yl)-2-(methylsulfonamido)-5-(trifluoromethyl)benzamide]	5.98
O=C(NC12CC(C(F)(F)F)(C1)C2)c1ccc(C(F)(F)F)cc1NS(=O)(=O)c1ccc(-c2nnn[nH]2)cc1 [Example 159, 2-((4-(1H-tetrazol-5-yl)phenyl)sulfonamido)-4-(trifluoromethyl)-N-(3-(trifluoromethyl)bicyclo[1.1.1]pentan-1-yl)benzamide]	≥ 200
CC(C)(C)S(=O)(=O)c1ccc(S(=O)(=O)Nc2cc(F)ccc2C(=O)NC23CC(C(F)(F)F)(C2)C3)cc1 [Example 152, 2-((4-(tert-butylsulfonyl)phenyl)sulfonamido)-4-fluoro-N-(3-(trifluoromethyl)bicyclo[1.1.1]pentan-1-yl)benzamide]	1.13
N#CC1(S(=O)(=O)Nc2ccc(F)cc2C(=O)NC23CC(C(F)(F)F)(C2)C3)CC1 [Example 242, 2-((1-cyanocyclopropane)-1-sulfonamido)-5-fluoro-N-(3-(trifluoromethyl)bicyclo[1.1.1]pentan-1-yl)benzamide]	4.34
CC(C)S(=O)(=O)Nc1ccc(C(F)(F)F)cc1C(=O)NC12CCC(C#N)(CC1)CC2 [Example 72, N-(4-cyanobicyclo[2.2.2]octan-1-yl)-2-((1-methylethyl)sulfonamido)-5-(trifluoromethyl)benzamide]	4.01
COc1ccc(C(=O)NC23CC(C(F)(F)F)(C2)C3)c(NS(=O)(=O)c2ccc(S(C)(=O)=O)cc2)c1 [Example 88, 4-methoxy-2-((4-(methylsulfonyl)phenyl)sulfonamido)-N-(3-(trifluoromethyl)bicyclo[1.1.1]pentan-1-yl)benzamide]	26.3
CC(C)(C)S(=O)(=O)c1ccc(S(=O)(=O)Nc2cc(F)ccc2C(=O)NC23CC(C#N)(C2)C3)cc1 [Example 153, 2-((4-(tert-butylsulfonyl)phenyl)sulfonamido)-N-(3-cyanobicyclo[1.1.1]pentan-1-yl)-4-fluorobenzamide]	10.7
CS(=O)(=O)Nc1c(C(=O)NC23CCC(C#N)(CC2)CC3)ccc2ccccc12 [Example 219, N-(4-cyanobicyclo[2.2.2]octan-1-yl)-1-(methylsulfonamido)-2-naphthamide]	≥ 200
CS(=O)(=O)c1cccc(S(=O)(=O)Nc2cc(F)ccc2C(=O)NC23CC(C(F)(F)F)(C2)C3)c1 [Example 22, 4-fluoro-2-((3-(methylsulfonyl)phenyl)sulfonamido)-N-(3-(trifluoromethyl)bicyclo[1.1.1]pentan-1-yl)benzamide]	9.97
CCS(=O)(=O)c1ccc(S(=O)(=O)Nc2cc(C(F)(F)F)ccc2C(=O)NC23CC(C(F)(F)F)(C2)C3)cc1 [Example 24, 2-((4-(ethylsulfonyl)phenyl)sulfonamido)-4-(trifluoromethyl)-N-(3-(trifluoromethyl)bicyclo[1.1.1]pentan-1-yl)benzamide]	3.32
N#CC12CC(NC(=O)c3ccc(C(F)(F)F)cc3NS(=O)(=O)c3ccc4ccccc4c3)(C1)C2 [Example 35, N-(3-cyanobicyclo[1.1.1]pentan-1-yl)-2-(naphthalene-2-sulfonamido)-4-(trifluoromethyl)benzamide]	1.21
CC(C)(C)P(=O)(c1ccc(S(=O)(=O)Nc2cc(C(F)(F)F)ccc2C(=O)NC23CCC(C#N)(CC2)CC3)cc1)C(C)(C)C [Example 186, N-(4-cyanobicyclo[2.2.2]octan-1-yl)-2-((4-(di-tert-butylphosphoryl)phenyl)sulfonamido)-4-(trifluoromethyl)benzamide]	12.6
CC(C)(C)S(=O)(=O)Nc1ccc(C#N)cc1C(=O)NC12CC(C(F)(F)F)(C1)C2 [Example 97, 5-cyano-2-((1,1-dimethylethyl)sulfonamido)-N-(3-(trifluoromethyl)bicyclo[1.1.1]pentan-1-yl)benzamide]	1.43
CS(=O)(=O)c1ccc(S(=O)(=O)Nc2cc(Cl)c(Cl)cc2C(=O)NC23CC(c4ccccc4)(C2)C3)cc1 [Example 93, 4,5-dichloro-2-((4-(methylsulfonyl)phenyl)sulfonamido)-N-(3-phenylbicyclo[1.1.1]pentan-1-yl)benzamide]	2.64
CC(C)(C)S(=O)(=O)Nc1cc(C#N)ccc1C(=O)NC12CC(C(F)(F)F)(C1)C2 [Example 99, 4-cyano-2-((1,1-dimethylethyl)sulfonamido)-N-(3-(trifluoromethyl)bicyclo[1.1.1]pentan-1-yl)benzamide]	1.18
CN(C)S(=O)(=O)Nc1ccc(C(F)(F)F)cc1C(=O)NC12CC(C#N)(C1)C2 [Example 244, N-(3-cyanobicyclo[1.1.1]pentan-1-yl)-2-((N,N-dimethylsulfamoyl)amino)-5-(trifluoromethyl)benzamide]	7.65
O=C(NC12CC(C(F)(F)F)(C1)C2)c1ccc(C(F)(F)F)cc1NS(=O)(=O)c1ccc(OC(F)(F)F)cc1 [Example 6, 2-((4-(trifluoromethoxy)phenyl)sulfonamido)-4-(trifluoromethyl)-N-(3-(trifluoromethyl)bicyclo[1.1.1]pentan-1-yl)benzamide]	0.267
CC(C)S(=O)(=O)Nc1cc(C(F)(F)F)ccc1C(=O)NC12CC(C#N)(C1)C2 [Example 60, N-(3-cyanobicyclo[1.1.1]pentan-1-yl)-2-((1-methylethyl)sulfonamido)-4-(trifluoromethyl)benzamide]	6.22
O=C(NC12CCC(C(F)(F)F)(CC1)CC2)c1cc(Cl)ccc1NS(=O)(=O)C1CCS(=O)(=O)CC1 [Example 207, 5-chloro-2-((1,1-dioxidotetrahydro-2H-thiopyran)-4-sulfonamido)-N-(4-(trifluoromethyl)bicyclo[2.2.2]octan-1-yl)benzamide]	8.12
CC(C)(C)S(=O)(=O)Nc1ccc(C(F)(F)F)cc1C(=O)NC12CC(C#N)(C1)C2 [Example 164, N-(3-cyanobicyclo[1.1.1]pentan-1-yl)-2-((1,1-dimethylethyl)sulfonamido)-5-(trifluoromethyl)benzamide]	1.74
CS(=O)(=O)c1ccc(S(=O)(=O)Nc2cc(C(F)(F)F)ccc2C(=O)NC23CC(C2)C3)cc1 [Example 23, N-(bicyclo[1.1.1]pentan-1-yl)-2-((4-(methylsulfonyl)phenyl)sulfonamido)-4-(trifluoromethyl)benzamide]	12
CC(C)(C)S(=O)(=O)Nc1ccc(C(F)(F)F)cc1C(=O)NC12CCC(C(=O)O)(CC1)CC2 [Example 156, 4-(2-((1,1-dimethylethyl)sulfonamido)-5-(trifluoromethyl)benzamido)bicyclo[2.2.2]octane-1-carboxylic Acid]	≥ 200
